Data reported in patent US11572590B2, “Methods for evaluating tumor cell spheroids using 3D microfluidic cell culture device” (Dana-Farber Cancer Institute, Inc., priority 2017, dated 2023).
Like-named read-outs stand apart in the source and are kept apart here.

Assays:
Test in all cases: SelectScreen Kinase Profiling, single point inhibition and IC50 for off-target kinases
Type in all cases: biochemical
off-target kinases [1] = molecular target: off-target kinases (Homo sapiens, UniProt Q15759); conditions: MAPK11 (p38 beta), ZLYTE, ATP Km app
off-target kinases [2] = molecular target: off-target kinases (Homo sapiens, UniProt P07948); conditions: LYN A, ATP Km app, ZLYTE
off-target kinases [3] = molecular target: T1, off-target kinases (Homo sapiens, UniProt O15530); conditions: ZLYTE
T1 sequence (O15530 1-556): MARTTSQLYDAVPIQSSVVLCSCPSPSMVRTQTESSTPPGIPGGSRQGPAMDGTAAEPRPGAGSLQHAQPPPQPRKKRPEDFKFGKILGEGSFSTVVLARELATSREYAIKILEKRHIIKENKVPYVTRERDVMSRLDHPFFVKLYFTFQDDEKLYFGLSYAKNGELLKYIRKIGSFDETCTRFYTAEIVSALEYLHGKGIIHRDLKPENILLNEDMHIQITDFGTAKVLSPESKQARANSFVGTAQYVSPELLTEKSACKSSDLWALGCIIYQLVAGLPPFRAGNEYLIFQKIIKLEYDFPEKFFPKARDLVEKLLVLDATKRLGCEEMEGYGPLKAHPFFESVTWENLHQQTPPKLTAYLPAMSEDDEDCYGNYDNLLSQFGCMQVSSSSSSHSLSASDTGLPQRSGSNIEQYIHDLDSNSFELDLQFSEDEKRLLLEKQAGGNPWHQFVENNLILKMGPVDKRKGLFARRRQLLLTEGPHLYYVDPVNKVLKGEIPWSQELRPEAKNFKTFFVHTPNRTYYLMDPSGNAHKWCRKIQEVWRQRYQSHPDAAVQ

off-target kinases [4] = molecular target: off-target kinases (Homo sapiens, UniProt P22607, G697C); conditions: FGFR3 G697C (mutant), LanthaScreen Binding
off-target kinases [5] = molecular target: off-target kinases (Homo sapiens, UniProt Q14289); conditions: PTK2B (FAK2), ZLYTE, ATP Km app
off-target kinases [6] = molecular target: off-target kinases (Homo sapiens, UniProt P10721, A829P); conditions: KIT A829P, LanthaScreen Binding
off-target kinases [7] = molecular target: off-target kinases (Homo sapiens, UniProt Q5S007, R1441C); conditions: LRRK2 R1441C, ATP Km app, Adapta
off-target kinases [8] = molecular target: off-target kinases (Homo sapiens, UniProt Q9UM73, F1174L); conditions: ALK F1174L, mutant y, LanthaScreen Binding
off-target kinases [9] = molecular target: off-target kinases (Homo sapiens, UniProt O75716); conditions: STK16 (PKL12), LanthaScreen Binding
off-target kinases [10] = molecular target: off-target kinases (Homo sapiens, UniProt P78368); conditions: CSNK1G2 (CK1 gamma 2); Cmpd1 1000 μM; ATP Km app; ZLYTE
off-target kinases [11] = molecular target: off-target kinases (Homo sapiens, UniProt Q9H422); conditions: HIPK3 (YAK1), ZLYTE, ATP Km app
off-target kinases (Homo sapiens, UniProt Q9H422), sequence (Q9H422 whole entry): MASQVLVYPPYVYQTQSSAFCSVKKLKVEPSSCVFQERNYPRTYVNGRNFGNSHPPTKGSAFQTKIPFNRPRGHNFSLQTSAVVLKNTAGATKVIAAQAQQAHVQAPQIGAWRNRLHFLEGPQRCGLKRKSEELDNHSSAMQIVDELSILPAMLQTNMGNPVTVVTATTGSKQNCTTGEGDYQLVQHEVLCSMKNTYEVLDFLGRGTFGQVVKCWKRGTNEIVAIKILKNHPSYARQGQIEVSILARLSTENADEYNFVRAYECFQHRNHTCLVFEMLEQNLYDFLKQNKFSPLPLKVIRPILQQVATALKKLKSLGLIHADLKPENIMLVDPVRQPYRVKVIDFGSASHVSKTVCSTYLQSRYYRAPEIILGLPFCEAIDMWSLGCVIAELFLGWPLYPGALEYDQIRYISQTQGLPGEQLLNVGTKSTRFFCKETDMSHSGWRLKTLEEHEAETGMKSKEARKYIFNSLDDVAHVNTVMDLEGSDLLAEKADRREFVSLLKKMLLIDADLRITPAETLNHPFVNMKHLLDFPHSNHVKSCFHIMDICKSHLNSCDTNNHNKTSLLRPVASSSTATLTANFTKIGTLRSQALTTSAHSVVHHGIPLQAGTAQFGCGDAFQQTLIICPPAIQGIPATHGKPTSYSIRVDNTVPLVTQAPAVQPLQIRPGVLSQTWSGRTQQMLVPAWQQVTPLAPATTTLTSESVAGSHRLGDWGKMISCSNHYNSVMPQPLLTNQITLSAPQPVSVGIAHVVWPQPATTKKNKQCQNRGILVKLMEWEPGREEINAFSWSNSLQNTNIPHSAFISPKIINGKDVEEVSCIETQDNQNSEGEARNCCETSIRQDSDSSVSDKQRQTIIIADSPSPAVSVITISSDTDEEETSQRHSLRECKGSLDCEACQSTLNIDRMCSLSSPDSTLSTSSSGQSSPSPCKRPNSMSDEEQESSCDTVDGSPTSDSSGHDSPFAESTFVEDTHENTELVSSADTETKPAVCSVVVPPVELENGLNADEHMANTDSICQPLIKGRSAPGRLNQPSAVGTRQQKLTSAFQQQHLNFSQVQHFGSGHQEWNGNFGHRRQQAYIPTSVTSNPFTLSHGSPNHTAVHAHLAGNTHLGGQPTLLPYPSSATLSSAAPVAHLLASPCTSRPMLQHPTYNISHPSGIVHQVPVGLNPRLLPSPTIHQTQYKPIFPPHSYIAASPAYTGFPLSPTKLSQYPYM

off-target kinases (Homo sapiens, UniProt P07948), sequence (P07948 whole entry): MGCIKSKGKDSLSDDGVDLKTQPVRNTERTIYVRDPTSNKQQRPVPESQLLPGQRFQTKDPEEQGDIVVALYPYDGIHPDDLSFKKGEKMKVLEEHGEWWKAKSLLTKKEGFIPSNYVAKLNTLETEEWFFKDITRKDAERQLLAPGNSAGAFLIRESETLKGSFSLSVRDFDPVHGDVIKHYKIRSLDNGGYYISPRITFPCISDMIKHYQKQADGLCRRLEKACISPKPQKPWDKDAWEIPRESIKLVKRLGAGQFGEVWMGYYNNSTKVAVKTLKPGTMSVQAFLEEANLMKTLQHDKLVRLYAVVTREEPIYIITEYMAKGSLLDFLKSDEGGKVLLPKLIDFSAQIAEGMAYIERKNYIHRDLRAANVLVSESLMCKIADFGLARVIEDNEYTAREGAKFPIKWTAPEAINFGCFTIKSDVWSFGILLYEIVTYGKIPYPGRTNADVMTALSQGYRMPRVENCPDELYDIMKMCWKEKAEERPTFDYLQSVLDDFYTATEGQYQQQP
off-target kinases (Homo sapiens, UniProt Q9UM73, F1174L), sequence (Q9UM73 19-1620 F1174L): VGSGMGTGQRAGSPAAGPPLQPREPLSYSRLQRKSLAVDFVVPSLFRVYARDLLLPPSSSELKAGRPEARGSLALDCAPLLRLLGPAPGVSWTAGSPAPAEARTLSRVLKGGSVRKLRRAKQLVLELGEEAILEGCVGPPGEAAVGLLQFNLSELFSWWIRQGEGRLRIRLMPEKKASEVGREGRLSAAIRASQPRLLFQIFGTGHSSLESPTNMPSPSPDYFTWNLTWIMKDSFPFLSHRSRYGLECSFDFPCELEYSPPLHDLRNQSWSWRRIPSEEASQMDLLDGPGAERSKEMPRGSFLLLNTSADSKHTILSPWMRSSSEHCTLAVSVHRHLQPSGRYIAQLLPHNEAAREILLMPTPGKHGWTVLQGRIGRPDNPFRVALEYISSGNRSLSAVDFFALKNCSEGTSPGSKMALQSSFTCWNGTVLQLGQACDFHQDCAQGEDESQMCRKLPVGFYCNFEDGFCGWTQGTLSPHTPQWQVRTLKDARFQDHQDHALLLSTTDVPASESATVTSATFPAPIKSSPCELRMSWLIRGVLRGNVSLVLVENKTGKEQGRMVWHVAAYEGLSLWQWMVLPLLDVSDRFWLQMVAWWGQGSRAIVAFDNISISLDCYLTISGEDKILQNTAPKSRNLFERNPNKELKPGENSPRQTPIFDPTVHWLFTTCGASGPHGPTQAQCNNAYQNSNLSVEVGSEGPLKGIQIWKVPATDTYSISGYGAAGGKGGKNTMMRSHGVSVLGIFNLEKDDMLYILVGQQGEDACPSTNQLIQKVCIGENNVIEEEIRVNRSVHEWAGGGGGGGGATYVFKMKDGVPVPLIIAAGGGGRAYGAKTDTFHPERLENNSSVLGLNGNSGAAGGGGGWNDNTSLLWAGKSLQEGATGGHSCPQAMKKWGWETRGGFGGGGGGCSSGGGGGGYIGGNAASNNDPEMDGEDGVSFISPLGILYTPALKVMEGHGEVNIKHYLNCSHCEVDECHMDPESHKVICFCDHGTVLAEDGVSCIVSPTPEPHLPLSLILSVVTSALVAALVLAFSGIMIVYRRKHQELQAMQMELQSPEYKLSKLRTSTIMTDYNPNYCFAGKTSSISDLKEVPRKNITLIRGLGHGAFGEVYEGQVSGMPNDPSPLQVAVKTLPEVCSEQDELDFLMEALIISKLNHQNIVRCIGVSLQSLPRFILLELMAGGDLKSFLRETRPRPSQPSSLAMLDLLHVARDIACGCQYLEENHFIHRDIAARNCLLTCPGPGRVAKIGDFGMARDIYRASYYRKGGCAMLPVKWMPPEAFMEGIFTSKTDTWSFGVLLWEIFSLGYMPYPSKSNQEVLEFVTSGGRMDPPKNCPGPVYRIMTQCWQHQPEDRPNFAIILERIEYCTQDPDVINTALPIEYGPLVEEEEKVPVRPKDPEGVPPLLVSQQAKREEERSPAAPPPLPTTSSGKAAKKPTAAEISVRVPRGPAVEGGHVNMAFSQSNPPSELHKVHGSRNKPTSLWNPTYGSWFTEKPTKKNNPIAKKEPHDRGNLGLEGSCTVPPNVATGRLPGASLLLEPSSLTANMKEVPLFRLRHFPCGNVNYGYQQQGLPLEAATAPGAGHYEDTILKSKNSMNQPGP
off-target kinases (Homo sapiens, UniProt P22607, G697C), sequence (P22607 23-806 G697C): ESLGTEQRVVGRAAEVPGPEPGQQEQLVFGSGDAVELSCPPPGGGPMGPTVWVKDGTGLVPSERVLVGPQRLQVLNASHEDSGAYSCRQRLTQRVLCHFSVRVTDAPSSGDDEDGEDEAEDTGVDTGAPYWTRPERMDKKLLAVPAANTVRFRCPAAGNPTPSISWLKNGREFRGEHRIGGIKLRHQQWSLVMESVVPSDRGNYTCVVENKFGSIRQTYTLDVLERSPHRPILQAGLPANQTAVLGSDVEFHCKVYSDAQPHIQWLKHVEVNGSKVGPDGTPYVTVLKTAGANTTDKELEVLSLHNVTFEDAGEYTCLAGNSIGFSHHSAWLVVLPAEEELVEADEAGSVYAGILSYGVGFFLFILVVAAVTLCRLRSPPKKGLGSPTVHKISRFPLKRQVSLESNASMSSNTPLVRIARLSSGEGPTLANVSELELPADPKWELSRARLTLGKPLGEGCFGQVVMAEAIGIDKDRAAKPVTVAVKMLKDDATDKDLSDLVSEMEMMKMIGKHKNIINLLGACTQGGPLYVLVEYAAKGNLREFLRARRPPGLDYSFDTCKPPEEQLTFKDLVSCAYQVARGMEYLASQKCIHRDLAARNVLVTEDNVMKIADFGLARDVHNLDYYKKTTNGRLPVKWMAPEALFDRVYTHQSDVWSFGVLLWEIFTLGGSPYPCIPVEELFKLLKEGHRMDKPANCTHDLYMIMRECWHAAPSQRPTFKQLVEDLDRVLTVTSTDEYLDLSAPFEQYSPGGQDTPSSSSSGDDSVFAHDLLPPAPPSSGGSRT
off-target kinases (Homo sapiens, UniProt O75716), sequence (O75716 whole entry): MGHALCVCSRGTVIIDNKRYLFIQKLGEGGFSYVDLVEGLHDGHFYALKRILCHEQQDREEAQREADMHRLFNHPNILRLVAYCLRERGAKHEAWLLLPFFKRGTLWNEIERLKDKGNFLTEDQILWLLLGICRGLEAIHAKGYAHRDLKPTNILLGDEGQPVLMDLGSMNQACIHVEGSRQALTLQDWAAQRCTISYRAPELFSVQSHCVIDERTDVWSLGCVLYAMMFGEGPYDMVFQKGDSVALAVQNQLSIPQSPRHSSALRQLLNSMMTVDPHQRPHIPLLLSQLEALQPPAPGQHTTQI
off-target kinases (Homo sapiens, UniProt Q15759), sequence (Q15759 whole entry): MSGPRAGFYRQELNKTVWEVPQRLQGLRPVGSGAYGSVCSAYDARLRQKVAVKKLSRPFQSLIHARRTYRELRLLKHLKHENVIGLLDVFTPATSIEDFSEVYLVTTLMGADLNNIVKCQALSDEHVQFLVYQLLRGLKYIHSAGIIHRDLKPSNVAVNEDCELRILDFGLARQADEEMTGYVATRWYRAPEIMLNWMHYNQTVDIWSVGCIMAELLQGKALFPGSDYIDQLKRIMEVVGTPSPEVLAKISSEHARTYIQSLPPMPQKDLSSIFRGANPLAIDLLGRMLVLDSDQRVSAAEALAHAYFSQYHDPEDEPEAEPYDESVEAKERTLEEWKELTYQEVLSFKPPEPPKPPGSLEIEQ

N#Cc1cc(-c2ncnc(Nc3ccc(N4CCN(C5COC5)CC4)cc3)n2)ccc1OC1CCOCC1 [Compound 1, 5-(4-((4-(4-(oxetan-3-yl)piperazin-1-yl)phenyl)amino)-1,3,5-triazin-2-yl)-2-((tetrahydro-2H-pyran-4-yl)oxy)benzonitrile]
inhibition (off-target kinases [1]; read-out: % Inhibition 1): 6%
inhibition (off-target kinases [1]; read-out: % Inhibition 2): 4%
inhibition (off-target kinases [1]; read-out: % Inhibition Avg): 5%
inhibition (off-target kinases [2]; read-out: % Inhibition 1): 48%
inhibition (off-target kinases [2]; read-out: % Inhibition 2): 48%
inhibition (off-target kinases [2]; read-out: % Inhibition Avg): 48%
inhibition (off-target kinases [3]; PDK1, ATP 100, read-out: % Inhibition 1): 14%
inhibition (off-target kinases [3]; PDK1, ATP 100, read-out: % Inhibition 2): 16%
inhibition (off-target kinases [3]; PDK1, ATP 100, read-out: % Inhibition Avg): 15%
inhibition (off-target kinases [3]; PDK1 Direct, ATP Km app, read-out: % Inhibition 1): 85%
inhibition (off-target kinases [3]; PDK1 Direct, ATP Km app, read-out: % Inhibition 2): 74%
inhibition (off-target kinases [3]; PDK1 Direct, ATP Km app, read-out: % Inhibition Avg): 79%
inhibition (off-target kinases [4]; read-out: % Inhibition 1): 13%
inhibition (off-target kinases [4]; read-out: % Inhibition 2): 4%
inhibition (off-target kinases [4]; read-out: % Inhibition Avg): 8%
inhibition (off-target kinases [5]; read-out: % Inhibition 1): 8%
inhibition (off-target kinases [5]; read-out: % Inhibition 2): 4%
inhibition (off-target kinases [5]; read-out: % Inhibition Avg): 6%
inhibition (off-target kinases [6]; read-out: % Inhibition 1): 91%
inhibition (off-target kinases [6]; read-out: % Inhibition 2): 90%
inhibition (off-target kinases [6]; read-out: % Inhibition Avg): 90%
inhibition (off-target kinases [7]; read-out: % Inhibition 1): 99%
inhibition (off-target kinases [7]; read-out: % Inhibition 2): 95%
inhibition (off-target kinases [7]; read-out: % Inhibition Avg): 97%
inhibition (off-target kinases [8]; read-out: % Inhibition 1): 12%
inhibition (off-target kinases [8]; read-out: % Inhibition 2): 14%
inhibition (off-target kinases [8]; read-out: % Inhibition Avg): 13%
inhibition (off-target kinases [9]; read-out: % Inhibition 1): 95%
inhibition (off-target kinases [9]; read-out: % Inhibition 2): 93%
inhibition (off-target kinases [9]; read-out: % Inhibition Avg): 94%
% Inhibition 1 (off-target kinases [10]): −7%
% Inhibition 2 (off-target kinases [10]): −16%
% Inhibition Avg (off-target kinases [10]): −11%
inhibition (off-target kinases [11]; read-out: % Inhibition 1): 15%
inhibition (off-target kinases [11]; read-out: % Inhibition 2): 11%
inhibition (off-target kinases [11]; read-out: % Inhibition Avg): 13%
